Experimental findings from patent US12668649B2, “Monoglycerol acrylate based polymer and uses thereof” (priority 2022, dated 2026) are described below.

The conditions of series [1]: mouse, in vivo, iv.
Experimental: The impact of CTA-PGMA-DODA and PMGA-DODA on the circulation profile of radiolabeled [^14C]-liposomes was studied in healthy Balb/c mice. In this study, the concentrations of radiolabeled liposomes in the blood were monitored for 6 hours after intravenous injection.
Healthy animals were housed in a controlled environment (22° C., 12 hours day/night cycle) with ad libitum access to food and water. A total of 11 healthy male mice were divided in three groups (3-3-5). As a blank, liposomes without polymer on the surface were injected intravenously by the subclavian vein at a concentration of 2 mg/kg of phospholipids. Approximately 30-50 μL of blood was collected at various times (0.25, 0.5, 1, 2, 4, 6 Hours). Six hours post-injection, blood was collected by cardiac puncture for a terminal timepoint. Animals were euthanized by a cardiac perfusion with 3 mL of isotonic phosphate-buffered saline solution pH=7.2 (potassium phosphate 1.1 mmol/L, NaCl 150 mmol/L, disodium phosphate 3 mmol/L) and organs were collected. Biological samples were digested at 58° C. (in Solvable®, Perkin Elmer®), bleached with 30% hydrogen peroxide, and assessed by scintillation counting, using Hionic Fluor® (Perkin Elmer®) as a scintillation cocktail.
A short description of series [2]: Critical micellar concentration by Nile red fluorescence. It counts as physicochemical.
Experimental: We characterized the critical micellar concentration (CMC) of the polymers to evaluate their ability to self-assemble into polymolecular structures.
Nile red can be used to measure the CMC of surfactants and polymolecular architectures by following the fluorescence of the dye: the critical micelle concentration coincides with a strong increase in the intensity of the fluorescence (λex/em: 549/628 nm). Serial dilutions of polymers were made in the range of 2.5 to 7×10^−4 mg/mL. 200 μL of each sample were used with 10 μL of Nile Red solution in methanol (1×10^−5 M). Fluorescence was read in a 96-well plate (λex/em: 549/628 nm).

For “DODA-Terminated Poly(Monoglycerol Acrylate) [PMGA-DODA6.5k]”, in series [1], the “AUC0-6 h of the control liposomes relative to the liposome formulation prepared with the named polymer” value is given as 1.2 fold and the “effect on circulation time of liposomes” value is given as “do not seem to prolong the circulation time”. The compound `CCCCCCCCCCCCOS(=O)(=O)[O-].[Na+]` [SDS, sodium dodecyl sulfate] had a CMC in series [2] of 2 mg/mL.
